Test results as given in ChEMBL document CHEMBL5046233, “Nitroxoline and its derivatives are potent inhibitors of metallo-β-lactamases” (Eur J Med Chem, 2022).
Values after ≈ are worked out from the molar mass of the structure shown. Active and inactive are the calls of the source. No cut-off for these calls is given here.

Tests used:
Bacteria [1] = test: Inhibition of recombinant VIM-1 (unknown origin) using fluorocillin as substrate at 10 uM incubated for 30 mins by fluorescence based assay
Bacteria [2] = test: Inhibition of recombinant IMP-1 (unknown origin) using fluorocillin as substrate at 30 uM incubated for 30 mins by fluorescence based assay
Bacteria [3] = test: Inhibition of recombinant IMP-1 (unknown origin) using fluorocillin as substrate at 10 uM incubated for 30 mins by fluorescence based assay
[4] = Inhibition of recombinant NDM-1 (unknown origin) using fluorocillin as substrate at 30 uM incubated for 30 mins by fluorescence based assay; settings: Bacteria
Bacteria [5] = test: Inhibition of recombinant VIM-1 (unknown origin) using fluorocillin as substrate at 3 uM incubated for 30 mins by fluorescence based assay
Bacteria [6] = test: Inhibition of recombinant VIM-1 (unknown origin) using fluorocillin as substrate at 30 uM incubated for 30 mins by fluorescence based assay
[7] = Inhibition of recombinant NDM-1 (unknown origin) using fluorocillin as substrate at 3 uM incubated for 30 mins by fluorescence based assay; settings: Bacteria
[8] = Inhibition of recombinant NDM-1 (unknown origin) using fluorocillin as substrate at 10 uM incubated for 30 mins by fluorescence based assay; settings: Bacteria
Bacteria [9] = test: Inhibition of recombinant IMP-1 (unknown origin) using fluorocillin as substrate at 3 uM incubated for 30 mins by fluorescence based assay
Klebsiella pneumoniae [10] = test: Antimicrobial activity against Klebsiella pneumoniae clinical isolate T2301 expressing NDM-1 assessed as inhibition of bacterial growth by CLSI protocol based broth microdilution assay; format: functional
Escherichia coli [11] = test: Antimicrobial activity against Escherichia coli clinical isolate T2228 expressing VIM-1 assessed as inhibition of bacterial growth by CLSI protocol based broth microdilution assay; format: functional
Escherichia coli [12] = test: Antimicrobial activity against Escherichia coli T2435 expressing KPC-2 assessed as inhibition of bacterial growth by CLSI protocol based broth microdilution assay; format: functional
Pseudomonas aeruginosa [13] = test: Antimicrobial activity against Pseudomonas aeruginosa T2325 expressing IMP-1 assessed as inhibition of bacterial growth by CLSI protocol based broth microdilution assay; format: functional
Pseudomonas aeruginosa [14] = test: Antimicrobial activity against Pseudomonas aeruginosa T1098 expressing IMP-7 assessed as inhibition of bacterial growth by CLSI protocol based broth microdilution assay; format: functional
Klebsiella pneumoniae [15] = test: Antimicrobial activity against Klebsiella pneumoniae T2301 expressing NDM-1 assessed as assessed as inhibition of bacterial growth at 0.5XMIC measured after 24 hrs by time-kill assay; format: functional, organism-based
Pseudomonas aeruginosa [16] = test: Antimicrobial activity against Pseudomonas aeruginosa T2229 expressing SPM-1 assessed as inhibition of bacterial growth by CLSI protocol based broth microdilution assay; format: functional
Klebsiella pneumoniae [17] = test: Antimicrobial activity against Klebsiella pneumoniae T2301 expressing NDM-1 assessed as inhibition of bacterial growth at 0.5XMIC for 6 hrs by CLSI protocol based broth microdilution assay; format: functional, organism-based
Pseudomonas aeruginosa [18] = test: Antimicrobial activity against Pseudomonas aeruginosa T2283 expressing VIM-2 assessed as inhibition of bacterial growth by CLSI protocol based broth microdilution assay; format: functional
Escherichia coli [19] = test: Antimicrobial activity against Escherichia coli T2544 expressing VIM-1 assessed as inhibition of bacterial growth by CLSI protocol based broth microdilution assay; format: functional
Escherichia coli [20] = test: Antimicrobial activity against Escherichia coli T2359 expressing VIM-1 assessed as inhibition of bacterial growth at 0.5XMIC for 6 hrs by CLSI protocol based broth microdilution assay; format: functional, organism-based
Serratia marcescens = test: Antimicrobial activity against Serratia marcescens T2352 expressing NDM-1 assessed as inhibition of bacterial growth by CLSI protocol based broth microdilution assay; format: functional
Escherichia coli [21] = test: Antimicrobial activity against Escherichia coli T2433 expressing OXA-48 assessed as inhibition of bacterial growth by CLSI protocol based broth microdilution assay; format: functional
Escherichia coli [22] = test: Antimicrobial activity against Escherichia coli T2359 expressing VIM-1 assessed as assessed as inhibition of bacterial growth at 0.5XMIC measured after 24 hrs by time-kill assay; format: functional, organism-based
Pseudomonas aeruginosa [23] = test: Antimicrobial activity against Pseudomonas aeruginosa T2357 expressing VIM-1 assessed as inhibition of bacterial growth by CLSI protocol based broth microdilution assay; format: functional
Enterobacter cloacae [24] = test: Antimicrobial activity against Enterobacter cloacae T2218 expressing GIM-1 assessed as inhibition of bacterial growth by CLSI protocol based broth microdilution assay; format: functional
Klebsiella pneumoniae [25] = test: Antimicrobial activity against Klebsiella pneumoniae T2216 expressing VIM-1 assessed as inhibition of bacterial growth by CLSI protocol based broth microdilution assay; format: functional
Citrobacter freundii [26] = test: Antimicrobial activity against Citrobacter freundii T2354 expressing VIM-4 assessed as inhibition of bacterial growth by CLSI protocol based broth microdilution assay; format: functional
Pseudomonas aeruginosa [27] = test: Antimicrobial activity against Pseudomonas aeruginosa T2217 expressing VIM-2 assessed as inhibition of bacterial growth by CLSI protocol based broth microdilution assay; format: functional
Escherichia coli [28] = test: Antimicrobial activity against Escherichia coli T2351 expressing NDM-5 assessed as inhibition of bacterial growth by CLSI protocol based broth microdilution assay; format: functional
Citrobacter freundii [29] = test: Antimicrobial activity against Citrobacter freundii expressing T2431 KPC-3 assessed as inhibition of bacterial growth by CLSI protocol based broth microdilution assay; format: functional
Klebsiella pneumoniae [30] = test: Antimicrobial activity against Klebsiella pneumoniae T2432 expressing KPC-9 assessed as inhibition of bacterial growth by CLSI protocol based broth microdilution assay; format: functional
Escherichia coli [31] = test: Antimicrobial activity against Escherichia coli T2359 expressing NDM-1 assessed as inhibition of bacterial growth by CLSI protocol based broth microdilution assay; format: functional
Enterobacter cloacae [32] = test: Antimicrobial activity against Enterobacter cloacae T2311 expressing NDM-1 assessed as inhibition of bacterial growth by CLSI protocol based broth microdilution assay; format: functional
Enterobacter cloacae [33] = test: Antimicrobial activity against Enterobacter cloacae T2353 expressing VIM-1 assessed as inhibition of bacterial growth by CLSI protocol based broth microdilution assay; format: functional
Pseudomonas aeruginosa [34] = test: Antimicrobial activity against Pseudomonas aeruginosa T2282 expressing VIM-2 assessed as inhibition of bacterial growth by CLSI protocol based broth microdilution assay; format: functional
[35] = Cytotoxicity against human HUVEC cells assessed as metabolic activity measured after 24 hrs by cell-titer blue assay; format: toxicity, cell-based
Escherichia coli [36] = settings: T2228

N#CCNCc1cc([N+](=O)[O-])c2cccnc2c1O
inhibition (Bacteria [1]): 99% | inhibition (Bacteria [2]): 96% | inhibition (Bacteria [3]): 91% | inhibition [4]: 98% | inhibition (Bacteria [5]): 95% | inhibition (Bacteria [6]): 99% | inhibition [7]: 64% | inhibition [8]: 89% | inhibition (Bacteria [9]): 43%

CCNCc1cc([N+](=O)[O-])c2cccnc2c1O
inhibition (Bacteria [1]): 53% | inhibition (Bacteria [2]): 92% | inhibition (Bacteria [3]): 53% | inhibition [4]: 88% | inhibition (Bacteria [5]): < 20% | inhibition (Bacteria [6]): 98% | inhibition [7]: < 20% | inhibition [8]: 40% | inhibition (Bacteria [9]): < 20%

O=C(O)c1ccc2cccc(O)c2n1
inhibition (Bacteria [1]): 54% | inhibition (Bacteria [2]): 95% | inhibition (Bacteria [3]): 72% | inhibition [4]: 100% | inhibition (Bacteria [5]): 32% | inhibition (Bacteria [6]): 91% | inhibition [7]: 24% | inhibition [8]: 97% | inhibition (Bacteria [9]): 27%

CCN1CCN(C(=O)N[C@@H](C(=O)N[C@@H]2C(=O)N3[C@@H]2SC(C)(C)[C@@H]3C(=O)O)c2ccccc2)C(=O)C1=O [PIPERACILLIN]
MIC (Klebsiella pneumoniae [10]): 4.1 µg/mL (≈ 7.91 µM) | MIC (Escherichia coli [11]): 1.02 µg/mL (≈ 1.98 µM)

C[C@@H](O)[C@H]1C(=O)N2C(C(=O)O)=C(SCCNC=N)C[C@H]12 [IMIPENEM ANHYDROUS]
MIC (Escherichia coli [12]): 0.004 µg/mL (≈ 0.0134 µM) | MIC (Pseudomonas aeruginosa [13]): 0.032 µg/mL (≈ 0.107 µM) | MIC (Pseudomonas aeruginosa [14]): 0.128 µg/mL (≈ 0.428 µM) | inhibition (Klebsiella pneumoniae [15]): Active | MIC (Klebsiella pneumoniae [10]): 0.016 µg/mL (≈ 0.0534 µM) | MIC (Pseudomonas aeruginosa [16]): 0.512 µg/mL (≈ 1.71 µM) | inhibition (Klebsiella pneumoniae [17]): Active | MIC (Pseudomonas aeruginosa [18]): 0.032 µg/mL (≈ 0.107 µM) | MIC (Escherichia coli [19]): 0.032 µg/mL (≈ 0.107 µM) | inhibition (Escherichia coli [20]): Active | MIC (Escherichia coli [11]): 0.008 µg/mL (≈ 0.0267 µM) | MIC (Serratia marcescens): 0.256 µg/mL (≈ 0.855 µM) | MIC (Escherichia coli [21]): 0.002 µg/mL (≈ 0.00668 µM) | inhibition (Escherichia coli [22]): Active | MIC (Pseudomonas aeruginosa [23]): 0.256 µg/mL (≈ 0.855 µM) | MIC (Enterobacter cloacae [24]): 0.002 µg/mL (≈ 0.00668 µM) | MIC (Klebsiella pneumoniae [25]): 0.004 µg/mL (≈ 0.0134 µM) | MIC (Citrobacter freundii [26]): 2 µg/mL (≈ 6.68 µM) | MIC (Pseudomonas aeruginosa [27]): 0.256 µg/mL (≈ 0.855 µM) | MIC (Escherichia coli [28]): 0.008 µg/mL (≈ 0.0267 µM) | MIC (Citrobacter freundii [29]): 0.008 µg/mL (≈ 0.0267 µM) | MIC (Klebsiella pneumoniae [30]): 0.032 µg/mL (≈ 0.107 µM) | MIC (Escherichia coli [31]): 0.128 µg/mL (≈ 0.428 µM) | MIC (Enterobacter cloacae [32]): 0.008 µg/mL (≈ 0.0267 µM) | MIC (Enterobacter cloacae [33]): 0.008 µg/mL (≈ 0.0267 µM) | MIC (Pseudomonas aeruginosa [34]): 0.256 µg/mL (≈ 0.855 µM)

Cc1ccc2c(Cl)cc(Cl)c(O)c2n1
inhibition (Bacteria [1]): 58% | inhibition (Bacteria [2]): 92% | inhibition (Bacteria [3]): 73% | inhibition [4]: 91% | inhibition (Bacteria [5]): 20% | inhibition (Bacteria [6]): 84% | inhibition [7]: < 20% | inhibition [8]: 71% | inhibition (Bacteria [9]): 22%

O=C(O)c1ccc2c([N+](=O)[O-])ccc(O)c2n1
inhibition (Bacteria [1]): 99% | inhibition (Bacteria [2]): 99% | inhibition (Bacteria [3]): 96% | inhibition [4]: 100% | inhibition (Bacteria [5]): 70% | inhibition (Bacteria [6]): 99% | inhibition [7]: 20% | inhibition [8]: 95% | inhibition (Bacteria [9]): 74%

C[C@@H](O)[C@H]1C(=O)N2C(C(=O)O)=C(S[C@@H]3CN[C@H](C(=O)N(C)C)C3)[C@H](C)[C@H]12 [MEROPENEM]
MIC (Klebsiella pneumoniae [10]): 0.128 µg/mL (≈ 0.334 µM) | MIC (Escherichia coli [11]): 0.008 µg/mL (≈ 0.0209 µM)

O=[N+]([O-])c1ccc(O)c2ncccc12 [NITROXOLINE]
inhibition (Bacteria [1]): 31% | inhibition (Bacteria [2]): 95% | inhibition (Bacteria [3]): 42% | inhibition [4]: 99% | IC50 at 24 h [35]: 283 µg/mL (≈ 1490 µM) | inhibition (Bacteria [5]): < 20% | inhibition (Bacteria [6]): 75% | inhibition [7]: < 20% | inhibition [8]: 81% | inhibition (Bacteria [9]): < 20%

GENTAMICIN
MIC (Escherichia coli [36]): 0.002 µg/mL

Nc1ccc2c([N+](=O)[O-])ccc(O)c2n1
inhibition (Bacteria [1]): 37% | inhibition (Bacteria [2]): 74% | inhibition (Bacteria [3]): 38% | inhibition [4]: 93% | inhibition (Bacteria [5]): 20% | inhibition (Bacteria [6]): 72% | inhibition [7]: < 20% | inhibition [8]: 46% | inhibition (Bacteria [9]): < 20%

Oc1c(Cl)cc(Cl)c2cccnc12
inhibition (Bacteria [1]): 90% | inhibition (Bacteria [2]): 97% | inhibition (Bacteria [3]): 95% | inhibition [4]: 99% | inhibition (Bacteria [5]): 23% | inhibition (Bacteria [6]): 97% | inhibition [7]: < 20% | inhibition [8]: 98% | inhibition (Bacteria [9]): 34%

N#CC1(NC(=O)c2cc([N+](=O)[O-])c3cccnc3c2O)CC1
inhibition [4]: < 20% | inhibition [7]: < 20% | inhibition [8]: < 20%

CC(C)(O/N=C(\C(=O)N[C@@H]1C(=O)N2C(C(=O)[O-])=C(C[n+]3ccccc3)CS[C@H]12)c1csc(N)n1)C(=O)O [CEFTAZIDIME]
MIC (Klebsiella pneumoniae [10]): 4.1 µg/mL (≈ 7.49 µM) | MIC (Escherichia coli [11]): 0.256 µg/mL (≈ 0.468 µM)

CO/N=C(\C(=O)N[C@@H]1C(=O)N2C(C(=O)O)=C(COC(N)=O)CS[C@H]12)c1ccco1 [CEFUROXIME]
MIC (Klebsiella pneumoniae [10]): 8.19 µg/mL (≈ 19.3 µM) | MIC (Escherichia coli [11]): 1.02 µg/mL (≈ 2.41 µM)

O=C(O)c1ccc2c([N+](=O)[O-])cc([N+](=O)[O-])c(O)c2n1
inhibition (Bacteria [1]): 57% | inhibition (Bacteria [2]): 91% | inhibition (Bacteria [3]): 47% | inhibition [4]: 96% | inhibition (Bacteria [5]): 34% | inhibition (Bacteria [6]): 86% | inhibition [7]: < 20% | inhibition [8]: 90% | inhibition (Bacteria [9]): < 20%

CN(CC#N)Cc1ccc2c([N+](=O)[O-])ccc(O)c2n1
inhibition (Bacteria [1]): 53% | inhibition (Bacteria [2]): 78% | inhibition (Bacteria [3]): 38% | inhibition [4]: 93% | inhibition (Bacteria [5]): 23% | inhibition (Bacteria [6]): 92% | inhibition [7]: < 20% | inhibition [8]: 47% | inhibition (Bacteria [9]): < 20%

Oc1ccc2cccc(O)c2n1
inhibition [4]: < 20% | inhibition [7]: < 20% | inhibition [8]: < 20%

CN(CC#N)Cc1cc([N+](=O)[O-])c2cccnc2c1O
inhibition [4]: 82% | inhibition [7]: < 20% | inhibition [8]: < 20%
